Assay results: patent US5141627A, “Chelators whose affinity for calcium ion is increased by illumination” (The Regents of the University of California, priority 1989, dated 1992)
Values belong to the molecule of their own block, whether it stands above or below them. Bridges are numbered along the chain shown (N, C = ends). Where no end group is shown, it is not given here.

What was measured:
[1] = Absorbance spectra of free and Ca2+-bound chelators; format: physicochemical
Procedure: (§1) The titration was done at 22° C. with 10 mL of 100 mM KCl, 10 mM K-MOPS, 10 mM K2 H.HEEDTA, and 14 […] diazo-2 as starting materials, adjusting the pH to 7.24, recording the spectrum, and then discarding 1.0 mL of this solution and replacing with 1.0 mL of 100 mM KCl, 10 mM K.MOPS, 10 mM KCa.HEEDTA, 14 μM diazo-2, readjusting the pH to 7.24, and recording the spectra, which was then in 9 mM K2H.HEEDTA. Subsequent iterations to reach n mM KCa.HEEDTA, (10-n) mM HEEDTA, n=2-10, were done by discarding 10.0/(11-n) mL and replacing with equal volumes of the 10mM KCa.HEEDTA, 14 μM diazo-2 stock. After n=10 had been reached to give free Ca^2+ between 10^-5 and 10^-4 M, addition of 1 mM CaCl2 had no further effect on the spectrum. For clarity only six spectra are including in the figure, n=0, 2, 4, 6, 8, and 10. Each spectrum is labeled with the calculated free [Ca^2+ ] imposed by the HEEDTA buffer, assuming a log effective stability constant of 5.55 at pH 7.24.
(§2) The phenylacetate was produced by irradiating a 30 μM solution of diazo-2 in 100 mM KCl, 10 mM Tris.HCl, 10 mM K2 H.HEEDTA, pH 8.40, with Spectroline lamp at 365 nm to completion. The titration was then performed as in A but the pH was maintained at 8.40, at which the calculated log effective stability is constant for HEEDTA was 6.60.
Proton magnetic resonance spectra (^1 H NMR) were recorded on a Varian EM-390 90-MHz spectrometer in CDCl3 unless otherwise noted, and the chemical shifts are given in δ values relative to tetramethylsilane. Ultraviolet (UV) absorbance spectra were recorded on a Cary 210 or a Perkin-Elmer Lambda Array 3840 spectrophotometer at 20°±2° C. Melting points are in Centigrade and are uncorrected. Elemental analyses were performed by the Microanalytical Laboratory in the Department of Chemistry, University of California, Berkeley, Calif.

[2] = Quantum efficiency and completion of photolysis; format: physicochemical
Procedure: Spectra were obtained after 0, 2, 5, 9, 16, 28, 46, 80, 150, 285, 505 and 903 sec of 365-nm illumination at 7.82×10^- 9 einsteins cm^-2 s^-1 from Spectroline lamp. For clarity only the 0-, 9-, 28-, 46-, 80-, 150-, and 505-s spectra are reproduced herein. The 505- and 903-s spectra were identical, confirming completion of photolysis after those times. Solutions were at 22±2° C.
The method was as described in FIG. 1B except that the EGTA was replaced by 2 mM CaCl2, and spectra were measured after 0-, 50-, 100-, 203-, 412-, 840-, 1730-, 4080-, and 8000-s illumination. The last two spectra were identical, confirming completion. For clarity the 50- and 8000-s spectra are omitted.
The photolysis quantum efficiencies of diazo chelators were determined by alternately irradiating a buffered solution of the substrate with a known intensity of longwave UV light, and measuring the absorbance spectrum, in apparatus described by S. R. Adams, et al. (1988), supra.

[3] = Ca2+ affinity by UV spectra during titration of EGTA or HEEDTA buffers; format: binding
Procedure: as §1, §2
(§3) Ca^2+ -binding constants for chelators before and after photolysis were determined by monitoring UV spectra during titration of EGTA or HEEDTA buffers to varying free Ca^2+ levels.
Either the ratio of, for example, [Ca.EGTA] to free [EGTA] was adjusted at a constant pH, or the pH was varied while [Ca.EGTA]=[EGTA]. These two approaches gave equivalent answers for pH>7 whenever directly tested, because of the pH insensitivity of BAPTA-like ligands (see FIG. 1 legend for more details). The apparent dissociation constants of Ca.EGTA and Ca.HEEDTA were calculated as described by R. Y. Tsien (1980); see also R. Y. Tsien, et al. (1986), S. R. Adams, et al. (1980), Grynkiewicz, et al., (1985), and Jackson, et al. (1987).

[4] = Yield of high affinity chelator / low-affinity side product after photolysis; format: physicochemical
Procedure: Because of the direct conjugation of the dialkylamine moiety with the diazoketone group, diazo-2 has a large absorbance in the 350-400 nm range, which shifts 50 nm to shorter wavelengths on binding Ca^2+ (FIG. 1A). The dissociation constant for Ca^2+ is relatively high, at 2.2 μM, due to the electron withdrawing ability of the carbonyl group. Photolysis occurs at 365 nm with a quantum yield of 0.030. The peak at […] in zero Ca^2+ decreases to near baseline giving a spectrum similar to that of unsubstituted BAPTA, although a small peak remains at 355 nm (FIG. 1B). […] The reaction of diazo-2 with dilute aqueous acid should give the same product whose absorbance spectrum indeed matched that of the residual peak at 355 nm after photolysis in low Ca^2+. […] Once the extinction coefficient for the hydroxyacetyl derivative was known, the amount of the side product arising from photolysis is calculated to be about 10%.

[5] = Mg2+ affinity in Mg/EGTA buffers; format: binding; conditions: after photolysis; 0.1-0.15M ionic strength, pH 7.0-7.4, 20-23° C.; read-out: Kd (Mg2+), after photolysis
Procedure: as §3
Free [Mg^2+ ] was likewise controlled by Mg/EGTA buffers, assuming an apparent dissociation constant for the Mg.EGTA complex (including its monoprotonated form) of 6 mM at pH 7.60 in 0.1M ionic strength; see R. Y. Tsien, et al. (1986) and A. E. Martell, et al. (1974).

REF52 fibroblast cell = experiment: Intracellular free Ca2+ in REF52 fibroblasts on vasopressin stimulation and UV photolysis (fluo-3); format: cell-based, Fisher rat; conditions: 50 nM [arg8]-vasopressin
Text: The tetraacetoxymethyl esters of diazo-2 and diazo-3 were synthesized. The acetoxymethyl (AM) groups mask the negative charges on the carboxylate functions, so the AM ester of diazo-2 and diazo-3 can easily diffuse across the cell membrane, which is largely impermeable to ions. Once inside the cell, non-specific esterases in the cell hydrolytically cleave the AM esters and restore diazo-2 and diazo-3 to their tetracarboxylate forms, which being polyanions, are trapped within the cell. […] Prior to the start of data acquisition (t=0), the REF52 fibroblast cell was loaded with diazo-2 and fluo-3. […] Its fluorescence quantum yield is enhanced about 40-fold by Ca^2+ binding, which occurs with a Kd of 400 nM.
Prior to the start of data acquisition, the REF52 fibroblast cell was loaded with fluo-3 and diazo-2 by incubation for 30 min at 25° C. DME medium containing 1 μM diazo-2/AM and 10 μM fluo-3/AM. Acquisition of fluo-3 fluorescence intensity images was begun at time 0. The fluorescence intensity data was converted to intracellular Ca^2+ concentrations using a calibration procedure previously described. The event markers correspond to 1) stimulating the cell with 50 nM [arg^8 ]-vasopressin,and 2) flashing the cell for 1 s with UV light.
The experimental conditions were the same as in (A) except that the cell wa loaded with fluo-3 and diazo-3 (instead of diazo-2) by incubation for 90 min at 25° C. in DME medium containing 10 μm fluo-3/AM and […] diazo-3/AM. The event markers correspond to 1) stimulating the cell with 50 nM [arg^8 ]-vasopressin, and 2) flashing the cell for 1 s of UV light.
For preliminary biological tests, Fisher rat embryo fibroblast of the REF52 cell line were cultured as described by J. P. Y. Kao, et al. (1989).
For testing diazo-2, REF52 cells were incubated for 30 min at 25° C. in Dulbecco's modified Eagle's medium, buffered at pH 7.4 with 20 mM HEPES and containing 1 μM diazo-2/AM and 10 μM fluo-3/AM. For control experiments using diazo-3, the cells were incubated for 90 min at 25° C. in DMEM, buffered to pH 7.4 with 20 mM HEPES and containing 1 μM diazo-3/AM and […] fluo-3/AM. After loading, the cells were gently washed, transferred into Hanks' Balanced Salt Solution containing 0.2 mM sulfinpyrazone to inhibit non-specific organic anion transport (see Tsien, 1989), and mounted on a 25° C. microscope stage for experimentation.
Flash photolysis of trapped cellular diazo-2 and the concomitant monitoring of intracellular free Ca^2+ concentration with fluo-3, a fluorescent Ca^2+ indicator, were performed using methodology and instrumentation described in A. Minta, et al (1989) and J. P. Y. Kao, et al. (1989). Briefly, output form a Xe arc lamp was passed through a monochromator to yield the 490 nm light used to probe the fluo-3 trapped intracellularly. The fluo-3 fluorescence images of cells were recorded using a SIT TV camera. Images were stored on a high-resolution monochrome laser disc recorder (Panasonic TQ-2028) for delayed processing. Photolyses were performed by briefly moving a chopper mirror to send broad-band UV from an XBO 75 W xenon arc lamp and UG-2 filter into the microscope instead of 490 nm fluo-3 excitation. The microscope objective (Nikon UV-CF, 40X) was chosen for its high UV transmission and numerical aperture (1.3). […] The same computer was used to analyze the fluorescence images acquired during the experiment.

εmax, +Ca2+ ([1]; +Ca2+, at λmax): 42.3 10^-3, M^-1 cm^-1
λmax, +Ca2+ ([1]; +Ca2+, dominant peak at longest wavelength): 320 nm
εmax, free ([1]; free (zero Ca2+), at λmax): 46.0 10^-3, M^-1 cm^-1
λmax, free ([1]; free (zero Ca2+), dominant peak at longest wavelength): 371 nm
quantum yield relative to diazo-2 ([2]; compared with diazo-2): approximately half that of diazo-2
Φ quantum efficiency of photolysis, +Ca2+ ([2]; saturating [Ca2+]): 0.015
Φ quantum efficiency of photolysis, free ([2]; zero [Ca2+]): 0.015
Kd ([3]; after photolysis, 0.1-0.15M ionic strength, 20-23° C., read-out: Kd (Ca2+), after photolysis): 0.055 µM
Kd ([3]; before photolysis, 0.1-0.15M ionic strength, pH 7.0-7.4, 20-23° C., read-out: Kd (Ca2+), before photolysis): 89 µM
Photolysis yield (yield of high affinity Ca2+ chelator after photolysis) ([4]; after photolysis): 88
low-affinity side product on complete photolysis, expected ([4]; complete photolysis, expected): 19%
low-affinity side product on complete photolysis, measured ([4]; residual absorbance at 355 nm): 20%
Kd [5]: 2600 µM
Molecule: [N-]=[N+]=CC(=O)c1ccc(N(CC(=O)O)CC(=O)O)c(OCCOc2cc(C(=O)C=[N+]=[N-])ccc2N(CC(=O)O)CC(=O)O)c1 [diazo-4, 1,2-bis(2-bis(carboxymethyl)amino-5-(diazoacetyl)phenoxy)ethane]
change in Ca2+ affinity upon photolysis ([3]; complete photolysis): 1600 fold

Molecule: [arg^8 ]-vasopressin: stimulus of the REF52 cell, 50 nM (CYFQNCPRG-NH2; disulfide 1-6; UniProt P01185 20-28, looked up) [reference compound]
[Ca2+]i response to stimulation (in words) (REF52 fibroblast cell): sharp but transient rise
[Ca2+]i plateau after stimulation (REF52 fibroblast cell; before UV): about 200 nM

photosensitivity (in words) ([2]; product of diazo-2 with dilute aqueous acid): complete lack of photosensitivity
Kd ([3]; side product after photolysis of diazo-2, from deviation of Hill plot, read-out: dissociation constant of side product): ~1 µM
amount of side product arising from photolysis ([4]; hydroxyacetyl derivative, from photolysis of diazo-2, calculated): about 10%
Molecule: Cc1ccc(N(CC(=O)O)CC(=O)O)c(OCCOc2cc(C(=O)CO)ccc2N(CC(=O)O)CC(=O)O)c1 [para-(2-hydroxyacetyl) derivative]
